In ChEMBL document CHEMBL1201862, “PubChem BioAssay data set” (2004):
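Protocol summary: plate cells (96-well), add compound at 5 concentrations, incubate 48 h, interpolate endpoints linearly. GI50 is the concentration that inhibits growth by half.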 Activity calls are given as the source filed them. Cut-off read from the data, not from the text of the source: active = GI50 up to about 1.1 µM and inactive = higher.

How the values were obtained:
Assay in all cases: DTP human tumour cell line panel, 48 h
DU-145 = system: DU-145
HL-60 = system: HL-60
HOP-92 = system: HOP-92
K562 = system: K562
MDA-MB-435 = system: MDA-MB-435
MDA-N = system: MDA-N
NCI-H460 = system: NCI-H460
NCI/ADR-RES = system: NCI/ADR-RES
OVCAR-4 = system: OVCAR-4
RPMI-8226 = system: RPMI-8226
SF-295 = system: SF-295
SK-OV-3 = system: SK-OV-3
SR = system: SR
SW-620 = system: SW-620
TK-10 = system: TK-10
UACC-62 = system: UACC-62
CAKI-1 = system: CAKI-1
SF-539 = system: SF-539
SK-MEL-2 = system: SK-MEL-2
Hs-578T = system: Hs-578T

Row | Structure (SMILES) | GI50 (DU-145) | GI50 (HL-60) | GI50 (HOP-92) | GI50 (K562) | GI50 (MDA-MB-435) | GI50 (MDA-N) | GI50 (NCI-H460) | GI50 (NCI/ADR-RES) | GI50 (OVCAR-4) | GI50 (RPMI-8226) | GI50 (SF-295) | GI50 (SK-OV-3) | GI50 (SR) | GI50 (SW-620) | GI50 (TK-10) | GI50 (UACC-62) | GI50 (CAKI-1) | GI50 (SF-539) | GI50 (SK-MEL-2) | GI50 (Hs-578T)
1 | O=C1c2c(O)cccc2Cc2cc(CO)cc(O)c21 | 3.86 µM (inactive) | 0.684 µM (active) | 1.61 µM (inactive) | 1.99 µM (inactive) | 2.67 µM (inactive) | 2.74 µM (inactive) | 0.619 µM (active) | 3.59 µM (inactive) | 1.07 µM (active) | 0.743 µM (active) | 1.52 µM (inactive) | 3.19 µM (inactive) | 2.82 µM (inactive) | 4.06 µM (inactive) | 4.08 µM (inactive) | 2.09 µM (inactive) | – | – | – | –
2 | COc1ccc(/C=N/n2c(C)n[nH]c2=O)cc1 | > 100 µM (inactive) | – | – | > 100 µM (inactive) | > 100 µM (inactive) | > 100 µM (inactive) | > 100 µM (inactive) | > 100 µM (inactive) | 42.8 µM (inactive) | > 100 µM (inactive) | > 100 µM (inactive) | > 100 µM (inactive) | – | > 100 µM (inactive) | – | > 100 µM (inactive) | > 100 µM (inactive) | > 100 µM (inactive) | > 100 µM (inactive) | –
3 | Cc1cc(C)c2c(c1)C/C(=C\c1ccccc1C(=O)O)C2=O | > 100 µM (inactive) | > 100 µM (inactive) | 81.8 µM (inactive) | > 100 µM (inactive) | – | > 100 µM (inactive) | 11.7 µM (inactive) | – | > 100 µM (inactive) | > 100 µM (inactive) | > 100 µM (inactive) | – | > 100 µM (inactive) | > 100 µM (inactive) | > 100 µM (inactive) | – | > 100 µM (inactive) | 39.4 µM (inactive) | – | > 100 µM (inactive)
4 | COP(=O)(Cc1ccc(/C=C/C#N)o1)OC | > 100 µM (inactive) | > 100 µM (inactive) | > 100 µM (inactive) | > 100 µM (inactive) | > 100 µM (inactive) | – | > 100 µM (inactive) | > 100 µM (inactive) | > 100 µM (inactive) | > 100 µM (inactive) | – | > 100 µM (inactive) | > 100 µM (inactive) | > 10 µM (inactive) | > 100 µM (inactive) | > 100 µM (inactive) | – | > 100 µM (inactive) | – | 62.2 µM (inactive)
5 | COc1ccccc1NC(=O)CC(=O)n1nc(C)c(/N=N/c2ccccc2F)c1C | – | > 100 µM (inactive) | 37.7 µM (inactive) | > 31.6 µM (inactive) | – | – | > 100 µM (inactive) | – | > 100 µM (inactive) | > 100 µM (inactive) | > 52 µM (inactive) | 31.3 µM (inactive) | 71.8 µM (inactive) | > 100 µM (inactive) | > 100 µM (inactive) | > 100 µM (inactive) | > 100 µM (inactive) | 21.5 µM (inactive) | > 100 µM (inactive) | –
6 | NNc1nc2ccccc2c(=O)n1NC(=O)C(=O)Nc1cccc(C(F)(F)F)c1 | – | > 100 µM (inactive) | > 100 µM (inactive) | > 100 µM (inactive) | > 100 µM (inactive) | > 100 µM (inactive) | > 100 µM (inactive) | > 100 µM (inactive) | > 100 µM (inactive) | > 100 µM (inactive) | > 100 µM (inactive) | > 100 µM (inactive) | > 10 µM (inactive) | > 100 µM (inactive) | > 100 µM (inactive) | > 100 µM (inactive) | > 100 µM (inactive) | > 100 µM (inactive) | > 100 µM (inactive) | > 100 µM (inactive)
7 | [N-]=[N+]=NC1=C(C(=O)c2ccccc2)C(=O)c2cccc3cccc1c23 | – | – | 28.4 µM (inactive) | 54.5 µM (inactive) | 51.5 µM (inactive) | 64.3 µM (inactive) | – | 67.3 µM (inactive) | 39.5 µM (inactive) | 37.2 µM (inactive) | 42.3 µM (inactive) | 26.6 µM (inactive) | 10.6 µM (inactive) | > 100 µM (inactive) | 21.9 µM (inactive) | 31.3 µM (inactive) | 40.6 µM (inactive) | 49.3 µM (inactive) | 21.8 µM (inactive) | 20.7 µM (inactive)
8 | O=C(Nc1ccccc1)c1cc(S(=O)(=O)Nc2n[nH]c(=O)[nH]2)c(SSc2cc(Cl)c(C(=O)Nc3ccccc3)cc2S(=O)(=O)Nc2n[nH]c(=O)[nH]2)cc1Cl | – | > 100 µM (inactive) | > 100 µM (inactive) | 55.5 µM (inactive) | > 100 µM (inactive) | > 100 µM (inactive) | > 100 µM (inactive) | > 100 µM (inactive) | > 100 µM (inactive) | > 100 µM (inactive) | > 100 µM (inactive) | > 100 µM (inactive) | > 100 µM (inactive) | > 100 µM (inactive) | > 100 µM (inactive) | – | > 100 µM (inactive) | – | > 100 µM (inactive) | > 100 µM (inactive)
